In the NIST ThermoML archive (doi:10.1016/j.jct.2006.05.008):
± gives the expanded uncertainty stated by the source.

Assay: molar heat capacity at constant pressure; wn = mass fraction of the nth substance listed
Settings: Small (less than 1 g) adiabatic calorimetry

CCCCn1cc[n+](C)c1.[Br-] [1-butyl-3-methylimidazolium bromide] + O
Crystal
Settings	molar heat capacity at constant pressure [J/K/mol]
218.45 K, w2 = 0.00482	179.81 ± 0.92
218.58 K, w2 = 0.0495	158.93 ± 0.83
218.67 K, w2 = 0.00482	179.82 ± 0.92
219.16 K, w2 = 0.0051	180.49 ± 0.92
219.16 K, w2 = 0.0169	170.74 ± 0.88
219.92 K, w2 = 0.0169	174.79 ± 0.9
220.75 K, w2 = 0.00482	181.03 ± 0.93
221.08 K, w2 = 0.00482	181.37 ± 0.93
221.13 K, w2 = 0.0495	162.83 ± 0.85
221.26 K, w2 = 0.0169	172.67 ± 0.89
221.69 K, w2 = 0.0051	182.19 ± 0.93
221.98 K, w2 = 0.0169	175.21 ± 0.9
222.83 K, w2 = 0.00482	182.24 ± 0.93
223.35 K, w2 = 0.0169	174.92 ± 0.9
223.65 K, w2 = 0.0495	166.27 ± 0.86
224.06 K, w2 = 0.0169	176.93 ± 0.91
224.22 K, w2 = 0.0051	184.17 ± 0.94
224.86 K, w2 = 0.00482	183.19 ± 0.93
225.43 K, w2 = 0.0169	177.21 ± 0.91
226.12 K, w2 = 0.0169	179.17 ± 0.92
226.16 K, w2 = 0.0495	169.5 ± 0.88
226.71 K, w2 = 0.00482	184.71 ± 0.94
226.73 K, w2 = 0.0051	185.92 ± 0.94
227.52 K, w2 = 0.0169	179.5 ± 0.92
228.19 K, w2 = 0.0169	181.4 ± 0.93
228.65 K, w2 = 0.0495	172.65 ± 0.89
228.79 K, w2 = 0.00482	185.77 ± 0.94
229.25 K, w2 = 0.0051	187.95 ± 0.95
229.6 K, w2 = 0.0169	181.84 ± 0.93
229.71 K, w2 = 0.0051	187.47 ± 0.95
230.25 K, w2 = 0.0169	183.78 ± 0.93
230.87 K, w2 = 0.00482	187.3 ± 0.95
231.12 K, w2 = 0.0495	175.4 ± 0.9
231.45 K, w2 = 0.0051	188.82 ± 0.96
231.69 K, w2 = 0.0169	184.4 ± 0.94
231.75 K, w2 = 0.0051	189.69 ± 0.96
232.32 K, w2 = 0.0169	185.93 ± 0.94
232.95 K, w2 = 0.00482	188.74 ± 0.95
233 K, w2 = 0.0051	190.22 ± 0.96
233.57 K, w2 = 0.0495	178.39 ± 0.92
233.77 K, w2 = 0.0169	186.45 ± 0.94
234.38 K, w2 = 0.0169	187.94 ± 0.96
234.56 K, w2 = 0.0051	191.21 ± 0.96
235.03 K, w2 = 0.00482	190.17 ± 0.96
235.85 K, w2 = 0.0169	188.93 ± 0.96
236.01 K, w2 = 0.0495	181.58 ± 0.93
236.12 K, w2 = 0.0051	192.22 ± 0.97
236.45 K, w2 = 0.0169	189.99 ± 0.96
237.1 K, w2 = 0.00482	191.7 ± 0.97
237.67 K, w2 = 0.0051	193.48 ± 0.97
237.94 K, w2 = 0.0169	190.98 ± 0.96
238.43 K, w2 = 0.0495	184.7 ± 0.95
238.52 K, w2 = 0.0169	191.98 ± 0.98
239.18 K, w2 = 0.00482	193.21 ± 0.97
239.22 K, w2 = 0.0051	194.65 ± 0.98
240.02 K, w2 = 0.0169	193.19 ± 0.98
240.19 K, w2 = 0.00482	193.43 ± 0.97
240.58 K, w2 = 0.0169	194.1 ± 0.98
240.74 K, w2 = 0.0051	195.27 ± 0.98
240.77 K, w2 = 0.0051	195.7 ± 0.98
240.84 K, w2 = 0.0495	187.48 ± 0.95
241.25 K, w2 = 0.00482	195.08 ± 0.98
241.57 K, w2 = 0.00482	194.88 ± 0.98
242.11 K, w2 = 0.0169	195.39 ± 0.98
242.23 K, w2 = 0.0051	196.6 ± 0.99
242.33 K, w2 = 0.0051	196.86 ± 0.99
242.65 K, w2 = 0.0169	196.25 ± 0.98
243.11 K, w2 = 0.00482	195.57 ± 0.98
243.23 K, w2 = 0.0495	190.7 ± 0.96
243.33 K, w2 = 0.00482	196.58 ± 0.99
243.57 K, w2 = 0.0051	197.62 ± 0.99
243.88 K, w2 = 0.0051	198.03 ± 0.99
244.2 K, w2 = 0.0169	197.53 ± 0.99
244.66 K, w2 = 0.00482	197.15 ± 0.99
244.72 K, w2 = 0.0169	198.26 ± 0.99
244.91 K, w2 = 0.0051	198.42 ± 0.99
245.41 K, w2 = 0.00482	198.24 ± 0.99
245.43 K, w2 = 0.0051	199.16 ± 1
245.6 K, w2 = 0.0495	193.88 ± 0.97
246.12 K, w2 = 0.00482	197.87 ± 0.99
246.21 K, w2 = 0.00482	198.68 ± 0.99
246.25 K, w2 = 0.0051	199.47 ± 1
246.28 K, w2 = 0.0169	199.77 ± 0.99
246.78 K, w2 = 0.0169	200.42 ± 0.99
246.98 K, w2 = 0.0051	200.29 ± 1
247.48 K, w2 = 0.00482	199.98 ± 1
247.59 K, w2 = 0.0051	200.49 ± 1
247.77 K, w2 = 0.00482	200.2 ± 1
247.97 K, w2 = 0.0495	197.01 ± 0.99
248.37 K, w2 = 0.0169	201.97 ± 1
248.53 K, w2 = 0.0051	201.44 ± 1
248.85 K, w2 = 0.0169	202.5 ± 1
248.93 K, w2 = 0.0051	201.61 ± 1
249.33 K, w2 = 0.00482	201.33 ± 1
249.56 K, w2 = 0.00482	201.61 ± 1
250.07 K, w2 = 0.0051	202.63 ± 1
250.26 K, w2 = 0.0051	202.66 ± 1
250.31 K, w2 = 0.0495	200.17 ± 1
250.45 K, w2 = 0.0169	204.14 ± 1
250.89 K, w2 = 0.00482	202.59 ± 1
250.91 K, w2 = 0.0169	204.77 ± 1
251.6 K, w2 = 0.0051	203.88 ± 1
251.64 K, w2 = 0.00482	203.37 ± 1
252.15 K, w2 = 0.0051	204.56 ± 1
252.45 K, w2 = 0.00482	203.62 ± 1
252.53 K, w2 = 0.0169	206.36 ± 1
252.64 K, w2 = 0.0495	203.4 ± 1
252.93 K, w2 = 0.0051	205.05 ± 1
252.97 K, w2 = 0.0169	206.96 ± 1
253.72 K, w2 = 0.00482	205.38 ± 1
253.96 K, w2 = 0.00482	204.5 ± 1
254 K, w2 = 0.00482	205.09 ± 1
254.27 K, w2 = 0.0051	206.08 ± 1
254.62 K, w2 = 0.0169	208.6 ± 1
254.74 K, w2 = 0.0051	206.57 ± 1
254.95 K, w2 = 0.0495	206.71 ± 1
255.04 K, w2 = 0.0169	209.12 ± 1
255.56 K, w2 = 0.00482	206.28 ± 1
255.6 K, w2 = 0.0051	207.19 ± 1
255.8 K, w2 = 0.00482	206.96 ± 1
255.99 K, w2 = 0.00482	206.25 ± 1
256.7 K, w2 = 0.0169	211 ± 1.1
256.94 K, w2 = 0.0051	208.23 ± 1

101 kPa, Liquid
Settings	molar heat capacity at constant pressure [J/K/mol]
220.21 K, w2 = 0.0495	192.42 ± 0.97
221.78 K, w2 = 0.00482	273.75 ± 1.3
222.3 K, w2 = 0.0495	192.93 ± 0.97
223.87 K, w2 = 0.00482	274.35 ± 1.3
224.39 K, w2 = 0.0495	193.35 ± 0.97
225.97 K, w2 = 0.00482	274.97 ± 1.3
226.48 K, w2 = 0.0495	193.78 ± 0.97
228.05 K, w2 = 0.00482	275.41 ± 1.3
228.57 K, w2 = 0.0495	194.3 ± 0.97
230.14 K, w2 = 0.00482	275.97 ± 1.3
230.66 K, w2 = 0.0495	194.89 ± 0.97
232.23 K, w2 = 0.00482	276.47 ± 1.3
232.75 K, w2 = 0.0495	195.6 ± 0.99
234.32 K, w2 = 0.00482	276.93 ± 1.3
236.41 K, w2 = 0.00482	277.36 ± 1.3
238.51 K, w2 = 0.00482	278.01 ± 1.3
240.59 K, w2 = 0.00482	278.63 ± 1.3
242.68 K, w2 = 0.00482	279.3 ± 1.3
244.77 K, w2 = 0.00482	280.02 ± 1.3
246.87 K, w2 = 0.00482	280.54 ± 1.3
248.96 K, w2 = 0.00482	281.17 ± 1.3
256.19 K, w2 = 0.0495	201.27 ± 1
